“Also recorded” adds a separate entry of the source.
Legend:
AND T cells [1] = test: ICAM-YFP distribution and T cell contact with supported membrane; format: cell-based, mouse; settings: 1 h pretreatment
AND T cells [2] = test: ZAP70-EGFP recruitment and cell morphology; format: cell-based, mouse; settings: for ZAP70 recruitment to plasma membrane / cell morphology: T102S/MHC well below, MCC/MHC above NFAT threshold; for linear ZAP70-EGFP trajectories: ∼5-min window, TIRF
5c.c7 TCR = test: single-molecule pMHC:TCR dwell time in live T cells; format: binding, mouse; settings: almost four orders of magnitude of pMHC density
CD28 [3] = settings: CD80:CD28 solution affinity, comparable with pMHC:TCR; ref [25], [32]–[34]; cited from earlier work
CD28 [4] = molecular target: T1, CD28 (Mus musculus, UniProt P31041); test: single-molecule CD80:CD28 binding in AND T cells; settings: 3-s time lapse, ∼10 cells, one experiment
T1 sequence (P31041 20-218): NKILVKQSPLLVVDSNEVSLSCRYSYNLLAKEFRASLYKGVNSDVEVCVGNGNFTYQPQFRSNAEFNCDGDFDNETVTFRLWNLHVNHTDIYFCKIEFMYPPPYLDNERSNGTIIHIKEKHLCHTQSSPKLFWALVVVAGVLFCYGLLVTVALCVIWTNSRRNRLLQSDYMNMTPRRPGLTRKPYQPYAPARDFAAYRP

AND T cells [5] = test: NFAT translocation assay; format: cell-based, mouse; settings: MCC/MHC:AND; unlabeled CD80 on bilayer (200 molecules per micrometer)

Row | Compound | ZAP70 recruitment to plasma membrane (AND T cells [2]) | cell morphology (AND T cells [2]) | linear ZAP70-EGFP trajectories (AND T cells [2]) | other results
1 | COC(=O)[C@H](CC(C)C)NC(=O)c1ccc(NC[C@@H](N)CS)cc1-c1cccc2ccccc12 [GGTI-298] |  |  |  | ICAM-YFP distribution (AND T cells [1]): relatively even ICAM-YFP distribution across the T cell; probability of T cell landing on supported membrane (AND T cells [1]): decreased the probability of the T cell’s landing on the supported membrane
2 | ANERADLIAYLKQASK [T102S] | low levels | asymmetric, crawling morphology | asymmetric | 
3 | ANERADLIAYLKQATK [MCC, moth cytochrome c (amino acids 88–103)] | enhanced ZAP70 recruitment | stationary, centrosymmetric cell morphology | centrosymmetric | 〈τoff〉 over pMHC density titration (5c.c7 TCR): remains constant
4 | CD80: decahistidine-tagged CD80 protein expressed in High Five cells; costimulatory ligand of CD28 |  |  |  | solution affinity (CD28 [3]): low micromolar range; CD80:CD28 〈τoff〉 versus pMHC density (CD28 [4]): constant as a function of pMHC density; also recorded: constant with respect to pMHC density; effect of CD80 on NFAT threshold density, MCC (AND T cells [5]): lowers the NFAT threshold density

— publication PMC5699024 (Proceedings of the National Academy of Sciences of the …, 2017)
